Ends that are not written are not given here. Peptide text beside a SMILES is read from it.
How the values were obtained:
[1] = MTT cytotoxicity on normal human skin keratinocytes; details: normal human epidermal keratinocytes
Description: (§1) To make sure the peptides are not cytotoxic to the cells, normal human epidermal keratinocytes were seeded to a 96-well plate. The plate was incubated at 37° C. in the presence of 5% CO2 to allow the cells to grow to >95% confluent. Peptides are diluted into stock solutions at concentrations of 50, 100, 200, and 500 μg/ml. The cell culture media are replaced with fresh media containing peptides at various concentrations then incubated at 37° C. and 5% CO2 for 24 hr. At the end of treatment the cell viability was measured using MTT assay kit purchased from ATCC (Manassas Va.).

in vitro = details: human, normal human epidermal keratinocytes
Description: as §1

[2] = system: wound repair in a murine model; details: cited from earlier work

| Compound | CC50 at 24 h [1] [µg/mL] | also measured |
| --- | --- | --- |
| EKMGR [HB2263, EKMGR] | > 500 | – |
| EKMGRN [HB2265, EKMGRN] | > 500 | – |
| KMGRN [HB2262, KMGRN] | > 500 | – |
| CSCC[C@H](NC(=O)[C@@H](N)CCCCN)C(=O)NCC(=O)O [HB2268, KMG] (H-Lys-Met-Gly-OH) | – | CC50 at 24 h (in vitro): > 500 µg/mL |
| MPKEKVFLKIEKMGRNIRN (Peptide HB107) [non-antimicrobial host defense peptide derived from cecropin B] | – | Benefit in wound repair ([2]; murine model, compared with growth factor rhPDGF): indistinguishable from the wound treated with growth factor rhPDGF; Epidermal hyperplasia (histological analysis of treated wounds) ([2]; murine wounds): increased |
| CSCC[C@H](N)C(=O)NCC(=O)N[C@@H](CCCNC(=N)N)C(=O)N[C@@H](CC(N)=O)C(=O)O [HB2235, MGRN] (H-MGRN-OH) | > 500 | – |
| GRNIRN [HB1062, GRNIRN] | > 500 | – |
| CSCC[C@H](NC(=O)[C@H](CCCCN)NC(=O)[C@@H](N)CCC(=O)O)C(=O)NCC(=O)O [HB2234, EKMG] (H-EKMG-OH) | > 500 | – |
| N=C(N)NCCC[C@H](NC(=O)CN)C(=O)N[C@@H](CC(N)=O)C(=O)O [HB2269, GRN] (H-Gly-Arg-Asn-OH) | > 500 | – |
| CC[C@H](C)[C@H](NC(=O)[C@@H](N)CCCCN)C(=O)N[C@@H](CCC(=O)O)C(=O)N[C@@H](CCCCN)C(=O)O [HB2232, KIEK] (H-KIEK-OH) | > 500 | – |
